Assay: mn = molality of the nth substance listed, in mol/kg
Settings: 101 kPa, Liquid; for speed of sound: Sing-around technique in a fixed-path interferometer; for mass density: Vibrating tube method

CCCCCCCC[N+](C)(CCCCCCCC)CCCCCCCC.O=S(=O)([N-]S(=O)(=O)C(F)(F)F)C(F)(F)F + CCOC(C)=O
Settings | mass density, 298.15 K [kg/m3] | mass density, 303.15 K [kg/m3] | mass density, 308.15 K [kg/m3] | mass density, 313.15 K [kg/m3] | speed of sound, 298.15 K [m/s] | speed of sound, 303.15 K [m/s] | speed of sound, 308.15 K [m/s] | speed of sound, 313.15 K [m/s]
m1 = 0.0193 | 897 | 891.1 | 885.3 | 878.9 | 1142 | 1119 | 1097 | 1074
m1 = 0.0434 | 900 | 894.1 | 888.3 | 882 | 1143 | 1120 | 1098 | 1076
m1 = 0.0692 | 903 | 897.1 | 891.3 | 885 | 1144 | 1122 | 1104 | 1077
m1 = 0.1377 | 910.7 | 904.8 | 899.1 | 892.9 | 1149 | 1125 | 1107 | 1080
m1 = 0.2691 | 923.8 | 918 | 912.4 | 906.5 | 1152 | 1128 | 1110 | 1083
m1 = 0.4006 | 935.1 | 929.4 | 924 | 918.3 | 1155 | 1131 | 1113 | 1086
m1 = 0.6119 | 950.4 | 944.9 | 939.7 | 934.5 | 1161 | 1140 | 1116 | 1092
m1 = 0.8299 | 963.4 | 958.3 | 953.3 | 948.4 | 1164 | 1146 | 1122 | 1098
m1 = 1.006 | 972.5 | 967.5 | 962.6 | 957.9 | 1170 | 1158 | 1128 | 1107
m1 = 1.28 | 984.5 | 979.7 | 974.8 | 970.2 | 1179 | 1161 | 1137 | 1113
m1 = 2.132 | 1011.1 | 1006.9 | 1001.9 | 997 | 1200 | 1170 | 1152 | 1131
m1 = 2.999 | 1029.3 | 1025.5 | 1019.5 | 1013.8 | 1206 | 1182 | 1161 | 1140

CCCCCCCC[N+](C)(CCCCCCCC)CCCCCCCC.O=S(=O)([N-]S(=O)(=O)C(F)(F)F)C(F)(F)F + CCO
Settings | mass density, 298.15 K [kg/m3] | mass density, 303.15 K [kg/m3] | mass density, 308.15 K [kg/m3] | mass density, 313.15 K [kg/m3] | speed of sound, 298.15 K [m/s] | speed of sound, 303.15 K [m/s] | speed of sound, 308.15 K [m/s] | speed of sound, 313.15 K [m/s]
m1 = 0.022 | 787.5 | 783.3 | 778.6 | 774 | 1150 | 1129 | 1099 | 1087
m1 = 0.0465 | 790.5 | 786.3 | 781.5 | 777 | 1151 | 1130 | 1100 | 1088
m1 = 0.0692 | 793.7 | 789.3 | 784.3 | 779.5 | 1152 | 1131 | 1101 | 1089
m1 = 0.1378 | 805.5 | 801.2 | 797 | 792.6 | 1154 | 1134 | 1116 | 1104
m1 = 0.2691 | 825.5 | 821.5 | 816.6 | 812 | 1158 | 1140 | 1122 | 1110
m1 = 0.4006 | 844.7 | 840.6 | 836.4 | 832.3 | 1170 | 1149 | 1134 | 1116
m1 = 0.6112 | 868.3 | 864.6 | 860.4 | 856.3 | 1176 | 1158 | 1140 | 1125
m1 = 0.8299 | 883.8 | 879.9 | 875.8 | 866.2 | 1179 | 1161 | 1146 | 1131
m1 = 1.008 | 892.6 | 888.9 | 884.8 | 880.7 | 1182 | 1164 | 1149 | 1134
m1 = 1.28 | 910.2 | 906.5 | 902.4 | 898.3 | 1188 | 1170 | 1158 | 1146

Reference: the NIST ThermoML archive (doi:10.1016/j.tca.2013.05.015)
